Drawing on the METLIN SMRT retention time set (Domingo-Almenara et al. 2019), this text covers RP-LC retention time for 57 molecules.

A short description of this series: gradient 5% acetonitrile 3 min, to 50% in 2 min, to 85% in 15 min, held 3 min, 100 µL/min. To be noted: column: Zorbax Extend-C18 2.1 x 50 mm; eluents: water / acetonitrile, 0.1% formic acid. In a few lines:
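Using water and acetonitrile that each contained 0.1% formic acid, mixtures of ~100 pure standards were separated at 100 μL/min on a Zorbax Extend-C18 column (2.1 × 50 mm, 1.8 μm). The HPLC fed a quadrupole time-of-flight mass spectrometer working in positive and negative ionization mode, with dead and dwell volumes of 40 μL and 900 μL. Data were acquired over 3 months. Retention time was read from computationally picked adduct peaks after manual inspection of each.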
`CCOC(=O)c1ccc2nc(C(F)(F)F)nc(NCCCc3ccccc3)c2c1` came in with an RP-LC retention time of 1300 s.

In turn, `O=C(NCCc1ccco1)C1CCN(Cc2cc3ccccc3n2Cc2ccccc2)CC1` came in with an RP-LC retention time of 762 s.

The molecule `CC(=O)Nc1nsc(N2CCC(C(=O)N3CCN(c4cccc(Cl)c4)CC3)CC2)n1` yielded an RP-LC retention time of 731 s.

`Cn1cnc2c(C(=O)Nc3cccc(Cl)c3)nn(-c3ccccc3)c2c1=O`: the RP-LC retention time was found to be 945 s.

On to `CC(C)n1cnc2ccc(-c3noc(COc4ccccc4)n3)cc21`, for which the RP-LC retention time amounted to 770 s.

For `Cc1ccc2c(c1)N(Cc1nc(-c3ccc4c(c3)OCO4)no1)C(=O)CO2`, the RP-LC retention time is 1020 s.

As to `COc1ccc(NC(=O)N2CCc3cn(C)c4cccc(c34)C2)cc1OC`, the RP-LC retention time came out at 794 s.

`CCn1c(C(=O)NC2CCCCCC2)cc2sc(Cl)cc21` gave an RP-LC retention time of 1290 s.

Molecule `Cc1cccc(NC(=O)COc2ccc(-c3cnc4ccccc4n3)cc2)n1` came in with an RP-LC retention time of 911 s.

The molecule `CN(CCNC(=O)C1CCCN(S(=O)(=O)c2ccc3c(ccn3C)c2)C1)Cc1ccccc1` (configuration not stated) yielded an RP-LC retention time of 704 s.

The molecule `CCOc1ccc(Br)cc1S(=O)(=O)N1CCN(c2nc(C)cc(N(C)C)n2)CC1` came in with an RP-LC retention time of 765 s.

The molecule `Cc1ccc2nc(C)c(NC(=O)c3ccccc3C(F)(F)F)c(=O)n2c1` returned an RP-LC retention time of 620 s.

For `COc1cccc(-c2nc(-c3cn(-c4cccc(Cl)c4)nn3)no2)c1`, the RP-LC retention time stood at 1140 s.

Consider `CCN1CCCC1CNC(=O)CN1C(=O)CCn2nc(-c3cn(C)c4ccccc34)cc21` (configuration not stated), for which the RP-LC retention time was 571 s.

`COc1cc(NC(=O)N2CCCC2c2nncn2C2CCCC2)cc(OC)c1` (configuration not stated) returned an RP-LC retention time of 677 s.

`Cc1c(Cl)cccc1-n1nc(C)c2c(C(F)(F)F)cc(OCC(=O)NC(C)C)nc21` showed an RP-LC retention time of 1160 s.

Regarding `Cn1nc(-c2nnc(-c3ccc(F)cc3)o2)c2c1CCN(S(=O)(=O)c1ccccc1F)C2`, the RP-LC retention time worked out at 937 s.

`CCc1ccc2c(c1)-c1ccccc1S(=O)(=O)N2CC(=O)NCc1ccccn1` displayed an RP-LC retention time of 720 s.

For `COc1ccc(C2(C(=O)N3C[C@@H](CO)[C@H](c4nc(C)no4)C3)CC2)cc1`, the RP-LC retention time was 665 s.

In the case of `CCOC(=O)c1c(C)[nH]c(C(=O)N2CCCC(C(=O)NC3CCCC3)C2)c1C` (configuration not stated), the RP-LC retention time was 759 s.

On to `O=C(CN1C(=O)c2ccccc2C1=O)NCC1CCS(=O)(=O)C1` (configuration not stated), for which the RP-LC retention time was found to be 586 s.

Molecule `COc1ccc(-c2cn3cccnc3n2)cc1NC(=O)c1cc(OC)c(OC)c(OC)c1` yielded an RP-LC retention time of 643 s.

In the case of `COc1cccc(OC)c1OCC(O)CN1CCN(c2cc(Cl)ccc2C)CC1` (configuration not stated), the RP-LC retention time is 615 s.

Regarding `Clc1ccc2nc(N3CCOCC3)nc(-c3ccccc3)c2c1`, the RP-LC retention time stood at 882 s.

Turning to `Cn1cc2nc(SCc3cc(F)cc(F)c3)n(Cc3ccc(F)cc3)c(=O)c2n1`, the RP-LC retention time was determined as 1070 s.

On to `Cn1cc(-c2nc(-c3cccc(Cl)c3)no2)c(=O)c2cc(F)c(N3CCCC3)cc21`, for which the RP-LC retention time amounted to 627 s.

The molecule `Cc1csc(-c2cc(S(=O)(=O)NCC3CCCO3)cn2CC(=O)N2CCCCC2)n1` (configuration not stated) showed an RP-LC retention time of 831 s.

The molecule `Cc1ccc(C)c(NC(=O)C2CCN(S(=O)(=O)c3c(C)[nH]c(C)c3C(=O)N3CCCC3)CC2)c1` gave an RP-LC retention time of 726 s.

Turning to `Cc1ccccc1S(=O)(=O)N1CCC(C(=O)NCc2csc(-c3cccs3)n2)CC1`, the RP-LC retention time is 898 s.

Regarding `CN1C(=O)c2ccccc2C(C(=O)NCCCN2CCc3ccccc3C2)C1c1cccs1` (configuration not stated), the RP-LC retention time was found to be 647 s.

In the case of `CC(C)n1c(CCNC(=O)c2ccc(C#N)cc2)nc2cccnc21`, the RP-LC retention time was found to be 639 s.

Consider `COC(=O)c1sccc1NC(=O)Cn1c(C)cc(C)c(-c2nc(-c3ccccc3)no2)c1=O`, for which the RP-LC retention time was found to be 1060 s.

On to `CCC(=O)N1CCc2cc(N3CC(C(=O)Nc4cccc(SC)c4)CC3=O)ccc21` (configuration not stated), for which the RP-LC retention time is 789 s.

`CC(=O)Nc1nc2ccc(CC(=O)NCCc3c[nH]c4ccc(Cl)cc34)cc2s1` displayed an RP-LC retention time of 747 s.

Regarding `O=C(CN1C(=O)CCCc2cc(S(=O)(=O)N3CCCCC3)ccc21)NCc1ccccc1`, the RP-LC retention time is 847 s.

Consider `COCCN(C)C(=O)c1cn(C2CN(S(=O)(=O)c3cn(C)cn3)C2)nn1`, for which the RP-LC retention time worked out at 585 s.

As to `CCS(=O)(=O)N1CCC(Cn2c(C)cnc2-c2ccccc2)C1` (configuration not stated), the RP-LC retention time was determined as 576 s.

`COc1cc2c(cc1OC)C(=O)Cc1ccc3c(c1CN(C)CC2)OCO3` registered an RP-LC retention time of 672 s.

`COc1nc2ccccc2nc1N1CCCC(C(=O)N2CCN(c3ccccc3F)CC2)C1` (configuration not stated) yielded an RP-LC retention time of 1240 s.

Molecule `Cc1oc(-c2[nH]ncc2C(=O)N2CCCC2)cc1S(=O)(=O)NCc1ccc(Cl)cc1` returned an RP-LC retention time of 737 s.

With `Cc1nnc(N2CCCC(C(=O)N3CCCCC3)C2)c2nn(-c3ccc(Cl)cc3)c(C)c12` (configuration not stated), the RP-LC retention time was 741 s.

Molecule `O=c1c(Cl)c(N2CCN(c3ccccn3)CC2)cnn1-c1nc2ccccc2s1` had an RP-LC retention time of 639 s.

With `CCCC1c2nccn2CCCN1C(=O)CCc1c(C)noc1C` (configuration not stated), the RP-LC retention time was determined as 595 s.

As to `COc1cc(OC)cc(-c2nc(-c3ccc4ncn(C(C)C)c4c3)no2)c1`, the RP-LC retention time was 843 s.

As to `Cc1nc(Nc2ccc(F)cn2)sc1C(=O)N1CCN(C2CCCCC2)CC1`, the RP-LC retention time was 639 s.

In turn, `COc1ccc(-c2nnc(COc3cccc(NC(=O)c4cncc(Br)c4)c3)o2)cc1` gave an RP-LC retention time of 914 s.

In turn, `Cc1ccc(-c2cc3c4nnc(SCC(=O)Nc5cc(F)ccc5C)n4ccn3n2)cc1C` returned an RP-LC retention time of 1080 s.

In the case of `CCCCN1CCN(C(=O)c2cc(NC(=O)C3CCC3)cc3nc(C)ccc23)CC1`, the RP-LC retention time amounted to 551 s.

`CCC(=O)N1CCc2cc(C(=O)NCc3cccs3)ccc21`: the RP-LC retention time was 743 s.

The molecule `O=C(C1CCN(c2nccnc2Sc2ccccc2)CC1)N1CCN(c2ccccn2)CC1` showed an RP-LC retention time of 682 s.

As for `CCOC(=O)c1ccc(NC(=O)c2cnc(-c3ccc(C)cc3)nc2-c2ccncc2)cc1`, the RP-LC retention time worked out at 1050 s.

Molecule `CCN1CCc2c(sc(-n3cccc3)c2CNC(=O)Nc2cc(C)ccc2OC)C1` returned an RP-LC retention time of 718 s.

Turning to `CC1CC(=O)Nc2ccccc2N1C(=O)COc1ccc(Cl)cc1Cl` (configuration not stated), the RP-LC retention time came to 844 s.

For the molecule `Cc1ccn2c(Nc3ccccc3C)c(-c3ccc(N(C)C)cc3)nc2c1`, the RP-LC retention time is 809 s.

Consider `Cc1cnc(C(=O)NC2C[C@H]3CC[C@@H](C2)N3C(=O)c2ccoc2)cn1` (some centres not stated), for which the RP-LC retention time came to 601 s.

The molecule `COc1ccccc1-c1nc(Cn2ccn3nc(-c4ccc5c(c4)OCO5)cc3c2=O)c(C)o1` showed an RP-LC retention time of 960 s.

In turn, `CCCCNC(=O)CC1CCN(C(=O)c2[nH]c(C)c(C(=O)OC)c2C)CC1` had an RP-LC retention time of 689 s.
